The subject of this assay is patients with ADSL deficiency. In words: Conners scale (parents and teachers) during allopurinol treatment. Format: in vivo, human. As for the experimental part:
Clinical characterization of the patients was carried out before starting treatment (T1) in accordance with the ICD 10 classification, using standardized tools: • A semi-structured interview by means of the Autism Diagnostic Interview (ADI-R): this is a semi-structured interview intended to classify symptoms reported by parents in the domain of communication, social interaction, restricted and stereotyped behaviours or sensory issues. Scores are established for the current period and, if necessary, for the period when the difficulties were most serious, between the ages of 4 and 5 years. A score is established for each of the three domains based on responses provided by the parents and the judgement of the interviewer. Scores above the thresholds in the 3 domains support a diagnosis of autism, and in one or two domains support a diagnosis of a pervasive developmental disorder. Scores below the thresholds in the 3 domains make it possible to rule out diagnosis of an autism spectrum disorder if the ADI-R results converge with the clinical assessment of the child. • A semi-structured interview using the Vineland 2 scale: this is a semi-structured interview which makes it possible to assess the adaptive skills of the child in the domains of communication, daily life, social skills and motor skills. From the description of their child's daily living skills, equivalent developmental ages and standardized scores are calculated, making it possible to describe the developmental and adaptive profile of the child. • A developmental assessment using the Psychoeducational Profile (PEP 3): this is a direct assessment of the skills of the child in several domains of their development, particularly suited to children who display a developmental disability. Six domains of development are assessed: verbal and preverbal cognition (VPC), expressive language (EL), receptive language (RL), gross motor skills (GM), fine motor skills (FM) and visual-motor imitation (VMI). The results are expressed in terms of equivalent developmental age and emerging score, when the exercises are partially completed. The number of emerging skills, or the difference between the actual ages and the emerging scores, are evidence of the development potential of the children. • The Conners scale: this is an assessment scale intended to quantify the symptoms of inattentiveness, agitation, impulsiveness, anxiety, somatization, behavioural difficulties and learning difficulties. There are several versions of the questionnaire, one for parents, the other for teachers or professionals. The scoring makes it possible to obtain an overall standardized score, considered to be significant when it is greater than 1.5.
Clinical re-assessments were carried out 6 months and one year after treatment with allopurinol and compared to the first assessment in the absence of treatment with allopurinol. They comprised: • At 6 months: scoring of the Vineland and Conners scales • At 12 months: scoring of the Vineland and Conners scales and completion of PEP-3.
Clinical progress at 200 mg of allopurinol was measured for each child based on the Conner and Vineland scale scores before treatment (T1), at 6 months (T2) and at 12 months of treatment (T3) with regard to behaviour and function.

As to `O=c1ncnc2[nH][nH]cc1-2` [allopurinol, 1,2-dihydro-4H-pyrazolo[3,4-d]pyrimidin-4-one], the overall clinical outcome (3 patients during treatment with allopurinol, more significant in the youngest patient (P3)) is listed as “clinical improvement”. Further, the “Conners v-score, scale completed by the parents” value (3 patients, T1, T2, T3) is listed as “reduction in the v-score”. In addition, the “scores on the Conners scale (parents and teachers)” value (3 patients, during treatment) is reported as “reduction”. The “Conners score, Teachers” value (Patient 1, T2 (6 months), T1 2.2, significant when >1.5) amounted to 1.5; the “Conners score, Teachers” value (Patient 1, T3 (12 months), T1 2.2) is recorded as 1; the “Conners score, Teachers” value (Patient 2, T2 (6 months), T1 2) is reported as 1.5; the “Conners score, Teachers” value (Patient 2, T3 (12 months), T1 2) is given as 1.4; the “Conners score, Teachers” value (Patient 3, T2 (6 months), T1 1.9) was 1.8; the “Conners score, Teachers” value (Patient 3, T3 (12 months), T1 1.9) is 1. In addition, the “Conners score, Parents” value was 1.6 (Patient 1, T2 (6 months), T1 2.3); 1.8 (Patient 1, T3 (12 months), T1 2.3); 0.8 (Patient 2, T2 (6 months), T1 1); 0.5 (Patient 2, T3 (12 months), T1 1); 1.2 (Patient 3, T2 (6 months), T1 1.7); 1 (Patient 3, T3 (12 months), T1 1.7). The “hyperactivity reported by the parents and teachers” value (three children, allopurinol 200 mg/d) is listed as “reduction in hyperactivity”. The behavioural disorders result (three children, allopurinol 200 mg/d, after 6 and 12 months) is recorded as “substantial improvement”. Also, the “behavioural disorders assessed using the Conners and Vineland scales” value (three children, allopurinol 200 mg/d, after 6 months) is recorded as “substantial improvement”.

The values are drawn from patent publication US20190298722A1, “USE OF AN INHIBITOR OF THE DE NOVO SYNTHESIS OF PURINES, IN THE TREATMENT OF ADENYLOSUCCINATE LYASE DEFICIENCY” (ASSISTANCE PUBLIQUE-HOPITAUX DE PARIS, priority 2016, published 2019).
